Laboratory results from patent publication US5942514A, “Quinazoline derivatives” (Zeneca Limited, priority 1995, dated 1999).

What was measured:
[1] = molecular target: T1, EGF receptor tyrosine kinase (Homo sapiens, UniProt P00533); assay: In vitro assay: ability of a test compound to inhibit the enzyme EGF receptor tyrosine kinase (Test (a)); format: biochemical; conditions: EGF receptor tyrosine kinase from A431 cells; approximate values
T1 construct: Receptor tyrosine kinase was obtained in partially purified form from A431 cells; endogenous in cells; host or cells: A431 cells (human vulval carcinoma), Triton X-100 solubilised membrane fraction
T1 sequence (P00533 25-1210): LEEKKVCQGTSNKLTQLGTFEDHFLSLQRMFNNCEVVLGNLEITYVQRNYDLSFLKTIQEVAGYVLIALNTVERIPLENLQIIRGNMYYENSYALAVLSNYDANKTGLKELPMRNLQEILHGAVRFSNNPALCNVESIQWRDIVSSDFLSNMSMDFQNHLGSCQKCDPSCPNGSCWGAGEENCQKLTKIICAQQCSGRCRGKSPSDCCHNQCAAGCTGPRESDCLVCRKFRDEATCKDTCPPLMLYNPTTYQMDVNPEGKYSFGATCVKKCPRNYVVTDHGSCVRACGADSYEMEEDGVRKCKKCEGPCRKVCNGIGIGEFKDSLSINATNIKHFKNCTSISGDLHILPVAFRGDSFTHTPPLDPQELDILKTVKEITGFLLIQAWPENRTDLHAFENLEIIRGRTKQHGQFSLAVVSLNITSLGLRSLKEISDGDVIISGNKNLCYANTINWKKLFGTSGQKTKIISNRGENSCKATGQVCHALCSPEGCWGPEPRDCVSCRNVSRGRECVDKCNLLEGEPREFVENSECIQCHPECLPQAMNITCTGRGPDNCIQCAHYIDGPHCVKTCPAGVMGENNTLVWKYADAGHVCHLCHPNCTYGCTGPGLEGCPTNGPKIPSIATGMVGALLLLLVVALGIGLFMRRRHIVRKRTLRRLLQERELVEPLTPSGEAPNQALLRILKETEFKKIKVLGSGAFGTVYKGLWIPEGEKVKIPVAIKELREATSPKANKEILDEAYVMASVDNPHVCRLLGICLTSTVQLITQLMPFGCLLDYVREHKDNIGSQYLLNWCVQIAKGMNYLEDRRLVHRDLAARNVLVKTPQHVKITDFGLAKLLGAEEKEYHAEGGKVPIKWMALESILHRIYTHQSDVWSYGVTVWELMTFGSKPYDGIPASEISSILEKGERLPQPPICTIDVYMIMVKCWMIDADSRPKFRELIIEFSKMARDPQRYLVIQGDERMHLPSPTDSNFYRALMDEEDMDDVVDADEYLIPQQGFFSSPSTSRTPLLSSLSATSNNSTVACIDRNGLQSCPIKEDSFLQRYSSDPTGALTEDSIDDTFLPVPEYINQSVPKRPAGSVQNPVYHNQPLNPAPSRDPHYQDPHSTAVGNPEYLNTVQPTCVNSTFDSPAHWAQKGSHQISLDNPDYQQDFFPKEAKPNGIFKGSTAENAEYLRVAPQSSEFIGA
Experimental: (a) An in vitro assay which determines the ability of a test compound to inhibit the enzyme EGF receptor tyrosine kinase.
A-431 cells were grown to confluence using Dulbecco's modified Eagle's medium (DMEM) containing 5% fetal calf serum (FCS). […] The homogenate was centrifuged at 400 g for 10 minutes at 0-4° C. The supernatant was centrifuged at 25,000 g for 30 minutes at 0-4° C. The pelleted material was suspended in 30 mM Hepes buffer at pH 7.4 containing 5% glycerol, 4 mM benzamidine and 1% Triton X-100, stirred for 1 hour at 0-4° C., and recentrifuged at 100,000 g for 1 hour at 0-4° C. The supernatant, containing solubilised receptor tyrosine kinase, was stored in liquid nitrogen.
There was thus obtained the test enzyme solution.
Equal volumes of this solution and a solution of epidermal growth factor (EGF; 20 μg/ml) were mixed.
[γ-^32 P]ATP (3000 Ci/mM, 250 μCi) was diluted to a volume of 2 ml by the addition of a solution of ATP (100 μM) in distilled water. An equal volume of a 4 mg/ml solution of the peptide […]in a mixture of 40 mM Hepes buffer at pH 7.4, 0.1% Triton X-100 and 10% glycerol was added.
The test compound/EGF mixture solution (5 μl) was added to the test enzyme solution (10 μl) and the mixture was incubated at 0-4° C. for 30 minutes. The ATP/peptide mixture (10 μl) was added and the mixture was incubated at 25° C. for 10 minutes. The phosphorylation reaction was terminated by the addition of 5% trichloroacetic acid (40 μl) and bovine serum albumin (BSA; 1 mg/ml, 5 μl). The mixture was allowed to stand at 4° C. for 30 minutes and then centrifuged. An aliquot (40 μl) of the supernatant was placed onto a strip of Whatman p 81 phosphocellulose paper. The strip was washed in 75 mM phosphoric acid (4×10 ml) and blotted dry. Radioactivity present in the filter paper was measured using a liquid scintillation counter (Sequence A). The reaction sequence was repeated in the absence of the EGF (Sequence B) and again in the absence of the test compound (Sequence C).
Receptor tyrosine kinase inhibition was calculated as follows: [formula]

KB cells = assay: In vitro assay: inhibition of the EGF-stimulated growth of the human naso-pharyngeal cancer cell line KB (Test (b)); format: cell-based; conditions: 72 h, EGF 10 ng/ml, 3 days, MTT, approximate values
Experimental: (b) An in vitro assay which determines the ability of a test compound to inhibit the EGF-stimulated growth of the human naso-pharyngeal cancer cell line KB.
KB cells were seeded into wells at a density of 1×10^4 -1.5×10^4 cells per well and grown for 24 hours in DMEM supplemented with 5% FCS (charcoal-stripped). Cell growth was determined after incubation for 3 days by the extent of metabolism of MTT tetrazolium dye to furnish a bluish colour. Cell growth was then determined in the presence of EGF (10 ng/ml) or in the presence of EGF (10 ng/ml) and a test compound at a range of concentrations. An IC50 value could then be calculated.

| SMILES | IC50 [1] | IC50 (KB cells) |
| --- | --- | --- |
| COCCCNc1ccc2ncnc(Nc3ccc(F)c(Cl)c3)c2c1 [Example 1, 4-(3'-chloro-4'-fluoroanilino)-6-(3-methoxypropylamino)quinazoline] | 50 nM | 100 nM |
| COCCNc1ccc2ncnc(Nc3ccc(F)c(F)c3)c2c1 [Example 2, 4-(3',4'-difluoroanilino)-6-(2-methoxyethylamino)quinazoline] | 300 nM | 500 nM |
| COCCNc1ccc2ncnc(Nc3ccc(F)c(Cl)c3)c2c1 [Example 3, 4-(3'-chloro-4'-fluoroanilino)-6-(2-methoxyethylamino)quinazoline] | 40 nM | 300 nM |
| COCCNc1ccc2ncnc(Nc3ccc(F)cc3F)c2c1 [Example 4, 4-(2',4'-difluoroanilino)-6-(2-methoxyethylamino)quinazoline] | 300 nM | 1100 nM |
